Data published in patent US11529318B2, “Devices and methods for local delivery of tacrolimus” (UNIVERSITY OF PITTSBURGH—OF THE COMMONWEALTH SYSTEM OF …, priority 2017, dated 2022).

What was measured:
[1] = Tacrolimus concentration in blood, optic nerve ischemia model (Example 1); assay type: in vivo, Sprague-Dawley rats; conditions: Sprague-Dawley, rat, whole blood, ip, systemic administration (i.p. 2.2 mg/kg/day)
Procedure: Optic nerve ischemia and PEUU-Tac matrix application. Animals were anesthetized by intraperitoneal injection of 45:10 mg/kg ketamine/xylazine cocktail. Once anaesthetized, the optic nerve was exposed by making a small incision and then creating a nearly bloodless plane through the conjunctiva by blunt dissection with #5 forceps. The surrounding muscle and connective tissue around the optic nerve were then gently separated until the optic nerve was exposed. Using a Yasagril aneurysm clip, the right optic nerve was clamped ˜2 mm behind the globe for 10 seconds (Sarikcioglu, Demir et al. 2007). After removing the clip, ophthalmic artery integrity was confirmed by visualization. For some animals, the optic nerve sheath was fenestrated at the injury site by making an 1-2 mm incision. For animals receiving PEUU-Tac, a 1×5 mm section cut from a 10 mg PEUU-Tac matrix was sutured around the injury site and then secured by suturing to the outer sheath. After each optic nerve procedure, the conjunctiva was sutured and antibiotic ointment (Gentamicin, Bausch & Lomb, Tampa, Fla.) was applied to the eye. […]
Quantification of tacrolimus in blood by HPLC-tandem mass spectrometry. […] Monitored parent to product mass transitions for tacrolimus and ascomycin were 821.63→768.33 and 809→756 m/z, respectively.

[2] = Tacrolimus concentration in whole blood (Example 3); assay type: in vivo, Lewis rats; conditions: Lewis, rat, intraperitoneal, 1 mg/kg, read-out: trough tacrolimus blood levels
Procedure: Quantification of Tacrolimus by LC-Tandem Mass Spectrometry (LC-MS/MS). Fifty microliters of blood containing an unknown concentration of Tacrolimus was added to a conical centrifugation tube, followed by 200 μL of zinc sulfate heptahydrate (ZnSO4.7H2O) to precipitate plasma proteins. Five hundred microliters of an acetonitrile based solution containing a deuterated internal standard (ascomycin) at a concentration of 15 ng/ml was then added, and the mixture was vortexed at 3000 rpm for 2 minutes and centrifugated at 13,000 rpm for 3 minutes and the supernatants collected in LCMS vials for analysis.
Analysis was performed using a fully validated, reverse phased method for the detection of TAC in blood on a Waters micromass Quattro micro API mass spectrometer that is operated in positive electrospray ionization mode, utilizing multiple reaction monitoring, with an injection volume of 20 μL. The Waters 2795 Alliance Separations Module was equipped with a nova-pack® C18 column, 2.1×10 mm cartridge (Waters #186003523) heated to 55° C. Analytes were effectively separated using a gradient elution consisting of an aqueous mobile phase (95% H2O/5% MeOH) and an organic mobile phase (100% MeOH), at a flow rate of 0.6 mL per minute. Mobile phases also contained 0.1% formic acid (CH2O2) and 2 mM ammonium acetate.

[3] = reference range; cited from earlier work
[4] = Tacrolimus concentration in infra orbital nerves, muscle and PEUU wraps (Example 3); assay type: in vivo, Lewis rats; conditions: Lewis, rat, daily intraperitoneal injections 1 mg/kg for 14 days
Procedure: Animals and Surgeries. All animals received care in compliance with the Institutional Animal Care and Use Committee and protocol approval from the University of Pittsburgh and followed guidelines from the Guide for the Care and Use of Laboratory Animals published by the U.S. National Institutes of Health. 10 Lewis rats (RT1) per group (treatment group, non-treatment group), aged 8-10 weeks, were anesthetized with 50 mg/kg intraperitoneal pentobarbital sodium and supplemented as necessary with 10 mg/kg injections. Sterile technique were utilized for all surgeries and a heating pad was used to maintain core animal temperature at 37° C.
The surgical procedure is described in depth in Xiao et al., 2016 and is briefly defined here. Proximal to the mystacial pad, an incision was made on the left hemiface distal to where the infraorbital nerve exits from the infraorbital foramen. Tissue was discretely dissected in order to expose the infraorbital branch of the trigeminal nerve and was transected using microscissors. […]
Quantification of Tacrolimus concentration in infra orbital nerves, muscle, and PEUU wraps. […] Drug concentration was measured by L-CMS/MS and the results were expressed as ng/g of tissue or wrap weight.
Quantification of Tacrolimus by LC-Tandem Mass Spectrometry (LC-MS/MS). […]

concentration at 24 h ([1]; 24 hour): 7.05 ± 1.09 ng/mL
concentration at 14 days ([1]; 14 days): 27.7 ± 3.53 ng/mL
concentration at 24 h ([2]; 24 hours post systemic injection): 18.8 ± 14.8 ng/mL
concentration at 14 days ([2]; 14 days, systemically treated animals): 14 ± 10.6 ng/mL
concentration at 14 days ([4]; infra orbital nerves (IONs), read-out: tacrolimus concentration in IONs): ~196 ng/g
concentration at 14 days ([4]; muscle, read-out: tacrolimus concentration in muscle): ~172 ng/g
Compound: C=CC[C@@H]1/C=C(\C)C[C@H](C)C[C@H](OC)[C@H]2O[C@@](O)(C(=O)C(=O)N3CCCC[C@H]3C(=O)O[C@H](/C(C)=C/[C@@H]3CC[C@@H](O)[C@H](OC)C3)[C@H](C)[C@@H](O)CC1=O)[C@H](C)C[C@@H]2OC [tacrolimus]
therapeutic trough levels (blood) [3]: 5 to 10 ng/mL
